This is an account of results in paper PMC4445981, “The glutamate transport inhibitor DL-Threo-β-Benzyloxyaspartic acid (DL-TBOA) differentially affects SN38- and oxaliplatin-induced death of drug-resistant colorectal cancer cells” (BMC Cancer, 2015).

Assay [1] has as its system [3H]-D-Asp uptake (glutamate transporter activity) in LoVo-SN38 cells. As to the kind of experiment: [3H]-D-Asp uptake assay, LoVo-SN38. The format is cell-based, human. The procedure:
(§1) We therefore next determined glutamate transporter activity (as uptake of the substrate [^3H]-D-Asp following a 6-min incubation in buffer supplemented with a tracer concentration of 100 nM [^3H]-D-Asp). […] To determine which transporter(s) was responsible for the [^3H]-D-Asp uptake, we assessed the effect of DL-TBOA, a nonselective inhibitor of EAATs, and UCPH-101, a specific SLC1A3 inhibitor [16, 28, 29]. […] Basal [^3H]-D-Asp uptake was decreased by about 60 % in SN38-resistant compared to parental HCT116 cells, whereas that in SN38-resistant LoVo cells was nearly tripled compared to parental LoVo cells.
(§2) The [^3H]-D-Asp uptake assay was performed essentially as in [30]. Briefly, cells were split into poly-D-lysine-coated white 96-well plates (PerkinElmer). A similar number of cells were seeded for HCT116 parental, HCT116-SN38 and HCT116-Oxa cell lines (7 × 10^4 cells/well) and LoVo parental, Lovo-SN38 and Lovo-Oxa cell lines (6 × 10^4 cells/well). 16–24 h later, culture medium was aspirated, and cells were washed once with 100 μl assay buffer (Hank’s Buffered Saline Solution supplemented with 20 mM HEPES, 1 mM CaCl2 and 1 mM MgCl2, pH 7.4). 50 μl assay buffer supplemented with 100 nM [^3H]-D-Asp and test compounds as indicated was added, and the plate was incubated at 37 °C for 6 min. Non-specific [^3H]-D-Asp uptake was determined in wells with 3 mM L-glutamate. The assay mixture was quickly removed, and wells were washed with 2 × 100 μl ice-cold assay buffer, followed by 150 μl Microscint™20 scintillation fluid (PerkinElmer). The plate was shaken for 1 h and counted in a Wallac 1450 MicroBeta Trilux scintillation counter (GMI, Ramsey, MN).

Assay [2] relates to [3H]-D-Asp uptake in HCT116 and LoVo cells (parental and resistant). As to the kind of experiment: [3H]-D-Asp uptake assay, summary over cell lines. The format is cell-based, human. The procedure:
as §1, §2

The subject of assay [3] is [3H]-D-Asp uptake (glutamate transporter activity) in LoVo-PAR cells. The assay can be described thus: [3H]-D-Asp uptake assay, LoVo-PAR. The format is cell-based, human. The method, then: as §1, §2
In assay [4] the test system is [3H]-D-Asp uptake (glutamate transporter activity) in HCT116-Oxa cells. The assay can be described thus: [3H]-D-Asp uptake assay, HCT116-Oxa. Type of assay: cell-based, human. The procedure: as §1, §2
In assay [5] the test system is [3H]-D-Asp uptake (glutamate transporter activity) in HCT116-PAR cells. As to the kind of experiment: [3H]-D-Asp uptake assay, HCT116-PAR. The format is cell-based, human. The procedure:
as §1, §2

Assay [6] relates to [3H]-D-Asp uptake (glutamate transporter activity) in HCT116-SN38 cells. The assay can be described thus: [3H]-D-Asp uptake assay, HCT116-SN38. Type of assay: cell-based, human. The method, then: as §1, §2
Assay [7] relates to [3H]-D-Asp uptake (glutamate transporter activity) in LoVo-Oxa cells. The assay can be described thus: [3H]-D-Asp uptake assay, LoVo-Oxa. The format is cell-based, human. The procedure:
as §1, §2

For a further assay, the system named is SLC1A1. To be noted: at concentration up to > 400 fold higher than SLC1A3 IC50; cited from earlier work.
The subject of a further assay is SLC1A3. To be noted: cited from earlier work.
Setting [8] is: Homo sapiens, read-out: IC50, [3H]-D-Asp uptake.
The mark [9] stands for this setting: Homo sapiens, read-out: pIC50 ± S.E.M., [3H]-D-Asp uptake (converted).

Where two headings read alike, the source gives them in different places.

On to `N[C@@H](CCC(=O)O)C(=O)O` [L-Glu, L-glutamate], for which the IC50 in [1] (setting [8]) is 28 µM; in [1] (setting [9]) it was 28.8 µM; in assay [2] (Homo sapiens, read-out: IC50 values, competitive inhibition of [3H]-D-Asp uptake), 20 to 30 µM; in assay [3] (setting [8]), 26 µM; in assay [3] (setting [9]), 25.7 µM; in assay [4] (setting [8]) it was 21 µM. In addition, the IC50 was 21.4 µM in assay [4] (setting [9]); 21 µM in [5] (setting [8]); 21.4 µM in [5] (setting [9]); 21 µM in [6] (setting [8]); 21.4 µM in assay [6] (setting [9]); 23 µM in [7] (setting [8]). Further, the IC50 in [7] (setting [9]) was 22.9 µM.

With `COc1ccc(C2C(C#N)=C(N)OC3=C2C(=O)CC(c2cccc4ccccc24)C3)cc1` (stereo not shown) [UCPH], in the assay on SLC1A1, the “activity at SLC1A1” value is “inactive”. In addition, the “pIC50 ± S.E.M., [3H]-D-Asp uptake” value in assay [1] (LoVo-SN38, 100 nM [3H]-D-Asp, 6 min, 37 °C) is given as under 4.0; in [3] (LoVo-PAR, 100 nM [3H]-D-Asp, 6 min, 37 °C) it was under 4.0; in assay [4] (HCT116-Oxa, 100 nM [3H]-D-Asp, 6 min, 37 °C), under 4.0; in assay [5] (HCT116-PAR, 100 nM [3H]-D-Asp, 6 min, 37 °C), under 4.0; in [6] (HCT116-SN38, 100 nM [3H]-D-Asp, 6 min, 37 °C), under 4.0; in [7] (LoVo-Oxa, 100 nM [3H]-D-Asp, 6 min, 37 °C), under 4.0. For the same compound, the IC50 in assay [1] (LoVo-SN38, 100 nM [3H]-D-Asp, 6 min, 37 °C, read-out: IC50, [3H]-D-Asp uptake) was over 100 µM; in assay [3] (LoVo-PAR, 100 nM [3H]-D-Asp, 6 min, 37 °C, read-out: IC50, [3H]-D-Asp uptake) it was over 100 µM; in assay [4] (HCT116-Oxa, 100 nM [3H]-D-Asp, 6 min, 37 °C, read-out: IC50, [3H]-D-Asp uptake), over 100 µM; in [5] (HCT116-PAR, 100 nM [3H]-D-Asp, 6 min, 37 °C, read-out: IC50, [3H]-D-Asp uptake) it was over 100 µM; in assay [6] (HCT116-SN38, 100 nM [3H]-D-Asp, 6 min, 37 °C, read-out: IC50, [3H]-D-Asp uptake), over 100 µM; in [7] (LoVo-Oxa, 100 nM [3H]-D-Asp, 6 min, 37 °C, read-out: IC50, [3H]-D-Asp uptake) it was over 100 µM. For the same compound, the “effect on basal [3H]-D-Asp uptake” value in assay [2] (all cell lines, concentrations up to 100 μM) is “essentially unaffected”. The “IC50 values for SLC1A3” value with SLC1A3 is given as “high-nanomolar”.
